{"source": "patent US20030072802A1", "about": "“Sustained release topiramate” (R.T. Alamo Ventures, Inc., priority 2001, published 2003)", "origin": "cited, not measured here", "key": {"[1]": {"conditions": "formulations currently in use; after a 200 mg dose"}, "[2]": {"tested_on": "state-dependent sodium channel (cultured neurons)"}, "[3]": {"tested_on": "GABAA receptors"}, "[4]": {"tested_on": "kainate/AMPA subtype of excitatory amino acid (glutamate) receptor"}, "[5]": {"tested_on": "NMDA receptor subtype"}}}
{"smiles": "CC1(C)OC2COC3(COS(N)(=O)=O)OC(C)(C)OC3C2O1", "note": "[topiramate, 2,3:4,5-bis-Q-(1-methylethylidene)-p-D-fructopyranose sulfamate]", "values": [{"measurement": "half life of plasma concentration", "setting": "[1]", "result": "about 21 hours"}, {"measurement": "time of peak topiramate plasma concentration", "setting": "[1]", "result": "about 2 hours"}, {"measurement": "effect on action potentials elicited repetitively by sustained depolarization", "setting": "[2]", "result": "blocked by topiramate in a time-dependent manner"}, {"measurement": "effect on GABA-induced flux of chloride ions into neurons", "setting": "[3]", "result": "enhances the ability of GABA to induce a flux of chloride ions into neurons"}, {"measurement": "effect on the duration of the channel open time", "setting": "[3]", "result": "nor did topiramate increase the duration of the channel open time"}, {"measurement": "effect on the frequency at which GABA activates GABAA receptors", "setting": "[3]", "result": "increases the frequency"}, {"measurement": "sensitivity of the GABA-potentiating effect to flumazenil (benzodiazepine antagonist)", "setting": "[3]", "result": "not blocked by flumazenil"}, {"measurement": "effect on the ability of kainate to activate the kainate/AMPA receptor", "setting": "[4]", "result": "antagonizes the ability of kainate to activate"}, {"measurement": "effect on the activity of NMDA at the NMDA receptor subtype", "setting": "[5]", "result": "no apparent effect"}]}
